For series [1], the target named is T1, Nociceptin receptor (Homo sapiens, UniProt P41146). The series can be described thus: Displacement of [125I]Tyr14-NC/OFQ from human ORL1 receptor. In general terms: Loss of bound radioactivity is the signal in a displacement assay; it reports binding, not function.
The target of series [2] is T1, Nociceptin receptor. In words: Antagonist activity at ORL1 receptor expressed in CHO cells assessed as inhibition of NC/OFQ-stimulated [35S]GTPgammaS binding. The format is functional, cell-based.
A further series addresses Mu-type opioid receptor (Homo sapiens, UniProt P35372). The series can be described thus: Displacement of [3H]diprenorphin from human cloned mu opioid receptor expressed in CHO cells. It counts as cell-based.
Series [3] in a line: Lipophilicity, log D at pH 7.4 by shake-flask method. It counts as physicochemical. The settings on record: buffer.
The target in series [4] is Voltage-gated inwardly rectifying potassium channel KCNH2 (Homo sapiens, UniProt Q12809). In words: Displacement of [35S]MK499 from human ERG expressed in HEK293 cells.
The target in series [5] is Kappa-type opioid receptor (Homo sapiens, UniProt P41145). In words: Displacement of [3H]U69593 from human cloned kappa opioid receptor expressed in CHO cells. It counts as cell-based.

Where only a bound is given, the exact number is not on record here.

Sequence of Voltage-gated inwardly rectifying potassium channel KCNH2 (Q12809 whole entry): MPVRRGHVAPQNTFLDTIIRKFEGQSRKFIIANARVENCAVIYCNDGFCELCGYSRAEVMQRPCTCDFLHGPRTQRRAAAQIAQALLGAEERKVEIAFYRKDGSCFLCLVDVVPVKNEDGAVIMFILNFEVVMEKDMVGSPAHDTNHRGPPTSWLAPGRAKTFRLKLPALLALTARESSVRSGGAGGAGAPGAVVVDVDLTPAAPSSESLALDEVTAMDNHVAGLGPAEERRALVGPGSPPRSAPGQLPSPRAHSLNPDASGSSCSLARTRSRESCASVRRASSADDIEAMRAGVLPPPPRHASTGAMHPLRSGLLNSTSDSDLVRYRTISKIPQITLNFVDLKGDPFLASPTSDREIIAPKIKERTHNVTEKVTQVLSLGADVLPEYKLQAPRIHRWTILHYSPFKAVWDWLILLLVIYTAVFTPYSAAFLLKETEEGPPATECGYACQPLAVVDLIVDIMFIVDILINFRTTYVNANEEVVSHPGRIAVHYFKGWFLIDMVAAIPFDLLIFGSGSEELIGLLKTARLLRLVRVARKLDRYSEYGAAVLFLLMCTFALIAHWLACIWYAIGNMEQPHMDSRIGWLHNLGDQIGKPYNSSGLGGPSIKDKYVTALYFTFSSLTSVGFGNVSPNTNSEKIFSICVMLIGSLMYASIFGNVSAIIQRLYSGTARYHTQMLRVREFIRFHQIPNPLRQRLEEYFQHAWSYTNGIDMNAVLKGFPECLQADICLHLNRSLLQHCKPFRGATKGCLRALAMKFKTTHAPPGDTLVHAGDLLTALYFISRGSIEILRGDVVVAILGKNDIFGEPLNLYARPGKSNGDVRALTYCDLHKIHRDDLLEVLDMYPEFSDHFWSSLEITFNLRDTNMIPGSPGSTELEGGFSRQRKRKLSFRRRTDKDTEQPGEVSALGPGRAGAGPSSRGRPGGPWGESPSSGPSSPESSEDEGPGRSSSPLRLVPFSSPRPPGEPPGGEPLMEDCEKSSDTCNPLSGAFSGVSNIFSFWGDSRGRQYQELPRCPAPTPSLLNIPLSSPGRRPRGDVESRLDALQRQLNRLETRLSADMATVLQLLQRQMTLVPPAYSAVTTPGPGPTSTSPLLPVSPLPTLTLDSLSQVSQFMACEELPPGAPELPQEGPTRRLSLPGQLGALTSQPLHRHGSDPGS
T1 sequence (P41146 whole entry): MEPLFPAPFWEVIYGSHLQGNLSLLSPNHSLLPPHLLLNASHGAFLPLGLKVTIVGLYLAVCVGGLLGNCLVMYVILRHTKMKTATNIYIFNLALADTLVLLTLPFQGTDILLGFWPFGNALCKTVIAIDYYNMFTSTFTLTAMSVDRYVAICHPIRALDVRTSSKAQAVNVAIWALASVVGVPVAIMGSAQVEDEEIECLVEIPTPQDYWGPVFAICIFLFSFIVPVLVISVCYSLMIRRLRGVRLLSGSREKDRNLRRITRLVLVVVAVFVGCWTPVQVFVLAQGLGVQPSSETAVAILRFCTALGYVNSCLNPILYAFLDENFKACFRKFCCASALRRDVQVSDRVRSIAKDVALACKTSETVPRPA
Sequence of Mu-type opioid receptor (P35372 whole entry): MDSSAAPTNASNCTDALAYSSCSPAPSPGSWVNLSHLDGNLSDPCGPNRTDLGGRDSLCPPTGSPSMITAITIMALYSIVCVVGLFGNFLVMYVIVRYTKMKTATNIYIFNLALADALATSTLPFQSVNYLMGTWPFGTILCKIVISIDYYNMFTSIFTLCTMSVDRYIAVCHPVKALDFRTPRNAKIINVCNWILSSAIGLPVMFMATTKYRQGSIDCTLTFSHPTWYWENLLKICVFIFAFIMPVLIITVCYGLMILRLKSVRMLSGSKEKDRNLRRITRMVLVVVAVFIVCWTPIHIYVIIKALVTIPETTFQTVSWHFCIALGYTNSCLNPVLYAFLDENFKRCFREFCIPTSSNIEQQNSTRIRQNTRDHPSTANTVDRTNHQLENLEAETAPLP
Sequence of Kappa-type opioid receptor (P41145 whole entry): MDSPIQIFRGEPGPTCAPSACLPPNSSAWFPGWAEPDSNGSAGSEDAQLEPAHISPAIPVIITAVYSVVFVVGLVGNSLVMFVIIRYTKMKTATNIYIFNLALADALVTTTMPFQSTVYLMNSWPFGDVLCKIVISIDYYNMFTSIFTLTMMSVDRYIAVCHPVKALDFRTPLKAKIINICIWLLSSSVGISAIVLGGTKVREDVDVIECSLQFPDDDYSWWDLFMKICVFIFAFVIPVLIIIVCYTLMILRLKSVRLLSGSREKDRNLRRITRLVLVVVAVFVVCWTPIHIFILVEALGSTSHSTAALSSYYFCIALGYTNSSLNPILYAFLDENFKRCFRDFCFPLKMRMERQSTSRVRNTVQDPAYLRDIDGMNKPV

One may read the IC50 as the concentration that inhibits the measured activity by half. The compound `Cc1c(CN2CCCCC2)nn(-c2ccc(Cl)cc2Cl)c1-c1ccc(Cl)cc1` displayed a 50% inhibitory concentration (IC50) on Nociceptin receptor [1] of 560 nM.

As a reminder, the logD is the decadic logarithm of the distribution of all forms, ionised or not, between an organic phase and buffer at a given pH. A low value points to a more hydrophilic compound. For the compound `Cc1ncc(-c2c(C)c(CN[C@H]3CC[C@@H](F)C3)nn2-c2ncccc2Cl)cc1F`, the 50% inhibitory concentration (IC50) at Nociceptin receptor [2] turned out to be 0.31 nM; on Mu-type opioid receptor, 5.6 µM; in series [4], 41 µM; on Nociceptin receptor [1], 0.52 nM; in series [5] it was 530 nM. The same compound yielded a logD in series [3] of 1.8.

With `Cc1c(CNCCC(C)C)nn(-c2ccc(Cl)cc2Cl)c1-c1ccc(Cl)cc1`, the half-maximal inhibitory concentration (IC50) on Nociceptin receptor [1] is 150 nM.

In turn, `Cc1c(CNC2CCCCC2)nn(-c2ccc(Cl)cc2Cl)c1-c1ccc(Cl)cc1` registered a concentration for half-maximal inhibition (IC50) at Nociceptin receptor [1] of 75 nM.

As for `Cc1c(CN(C(C)C)C2CCCCC2)nn(-c2ccc(Cl)cc2Cl)c1-c1ccc(Cl)cc1`, on Nociceptin receptor [1], the IC50 is over 1000 nM.

Take `Cc1ccc(-c2c(C)c(CNC3CCCC3)nn2-c2ncc(Cl)cc2Cl)cn1`: in series [3], the logD worked out at 2.5. For the same compound, on Nociceptin receptor [1], the 50% inhibitory concentration (IC50) turned out to be 8.2 nM.

In the case of `Cc1ccc(-c2c(C)c(CN[C@H]3CC[C@@H](F)C3)nn2-c2ncccc2Cl)cn1`, the IC50 at Nociceptin receptor [2] came to 1 nM; at Nociceptin receptor [1], 2.5 nM. Moreover, the log distribution coefficient (logD) in series [3] turned out to be 1.3.

Take `Cc1ccc(-c2c(C)c(CNC3CCC(F)(F)C3)nn2-c2ncccc2Cl)cn1` (stereo not given): the concentration for half-maximal inhibition (IC50) on Nociceptin receptor [2] was 4.5 nM; in series [4], 21 µM; at Nociceptin receptor [1], 9.3 nM. In series [3], the logD turned out to be 2.1.

As to `Cc1c(CNC2CCCC2)nn(-c2ccc(Cl)cc2Cl)c1-c1ccccn1`, on Nociceptin receptor [1], the IC50 was 530 nM.

In series [3], `Cc1c(CNC2CCCC2)nn(-c2ccc(Cl)cc2Cl)c1-c1cccnc1` gave a logD of 2.9.

The compound `Cc1c(CNC2CCCC2)nn(-c2ncccc2Cl)c1-c1cccnc1` yielded a log distribution coefficient (logD) in series [3] of 1.3. The IC50 in series [4] was 23 µM; at Nociceptin receptor [1], 61 nM.

On to `Cc1c(CNC2CCCC2)nn(-c2ncccc2Cl)c1-c1ccc(Cl)nc1`, for which the half-maximal inhibitory concentration (IC50) turned out to be 12 nM on Nociceptin receptor [2], 2.7 µM in series [4] and 11 nM on Nociceptin receptor [1]. In series [3], this compound came in with a logD of 2.1.

With `Cc1c(CNC(C)C)nn(-c2ccc(Cl)cc2Cl)c1-c1ccc(Cl)cc1`, the IC50 amounted to 480 nM at Nociceptin receptor [2], 0.023 µM in series [4] and 350 nM at Nociceptin receptor [1].

With `Cc1c(CNC2CCCC2)nn(-c2ncccc2Cl)c1-c1ccc(C(F)(F)F)nc1`, the logD in series [3] is 2.2. On Nociceptin receptor [1], this compound came in with a half-inhibitory concentration (IC50) of 270 nM.

Consider `Cc1cncc(-c2c(C)c(CNC3CCCC3)nn2-c2ncccc2Cl)c1`, for which the logD in series [3] was found to be 1.6. Besides, the half-maximal inhibitory concentration (IC50) in series [4] worked out at 9 µM; at Nociceptin receptor [1], 13 nM.

`Cc1ccc(-c2c(C)c(CNC3CCCC3)nn2-c2ncccc2C)cn1` showed a pH-dependent lipophilicity (logD) in series [3] of 1.2. The compound also came in with a half-maximal inhibitory concentration (IC50) on Nociceptin receptor [1] of 33 nM.

As for `Cc1ccc(-c2c(C)c(CNC3CCCC3)nn2-c2ncccc2S(C)(=O)=O)cn1`, the IC50 at Nociceptin receptor [1] was determined as 72 nM.

As for `Cc1ccc(-c2c(C)c(CNC3CCCC3)nn2-c2ncccc2Cl)cn1`, the values for the IC50 (at Nociceptin receptor [2]; in series [4]; on Nociceptin receptor [1]) were 4.7 nM, 16 µM and 4 nM, respectively. Besides, the logD in series [3] worked out at 1.7.

Take `CCc1ccc(-c2c(C)c(CNC3CCCC3)nn2-c2ncccc2Cl)cn1`: the logD in series [3] came out at 2. The concentration for half-maximal inhibition (IC50) on Nociceptin receptor [1] worked out at 67 nM.

Take `Cc1c(CN(C)C2CCCCC2)nn(-c2ccc(Cl)cc2Cl)c1-c1ccc(Cl)cc1`: the half-inhibitory concentration (IC50) on Nociceptin receptor [1] was over 1000 nM.

In series [3], `Cc1c(CNC2CCCC2)nn(-c2ccc(Cl)cc2Cl)c1-c1ccc(Cl)cc1` had a logD of over 4. The 50% inhibitory concentration (IC50) in series [4] amounted to 0.023 µM; at Nociceptin receptor [1], 28 nM.

Compound `Cc1c(CNC2CCCC2)nn(-c2ccc(Cl)cc2Cl)c1-c1ccncc1` returned an IC50 at Nociceptin receptor [1] of over 1000 nM.

With `Cc1ncc(-c2c(C)c(CNC3CCCC3)nn2-c2ncccc2Cl)cc1F`, the half-maximal inhibitory concentration (IC50) on Nociceptin receptor [2] came to 1.2 nM; on Nociceptin receptor [1] it was 1.1 nM. The same compound showed a pH-dependent lipophilicity (logD) in series [3] of 2.1.

On to `Cc1ccc(-c2c(C)c(CNC3CCCC3F)nn2-c2ncccc2Cl)cn1` (stereo not given), for which the half-inhibitory concentration (IC50) at Nociceptin receptor [2] is 11 nM; in series [4], 30 µM; on Nociceptin receptor [1], 7.1 nM. In series [3], this compound showed a pH-dependent lipophilicity (logD) of 2.

The compound `Cc1ccc(-c2c(C)c(CNC3CCCC3)nn2-c2ncccc2C(F)(F)F)cn1` registered a logD in series [3] of 1.9. In addition, the concentration for half-maximal inhibition (IC50) on Nociceptin receptor [1] is 36 nM.

At Nociceptin receptor [1], `Cc1c(CNCC(C)C)nn(-c2ccc(Cl)cc2Cl)c1-c1ccc(Cl)cc1` registered a 50% inhibitory concentration (IC50) of 150 nM.

The record behind these values is ChEMBL document CHEMBL1136941, “Discovery of novel arylpyrazole series as potent and selective opioid receptor-like 1 (ORL1) antagonists” (Bioorg Med Chem Lett, 2009).
